Results as given in patent publication US20050123553A1, “Amyloid beta-peptide and methods of use” (priority 2003, published 2005).

Legend:
[1] = test system: Aβ16-30-specific T cells; test: Proliferation of Aβ16-30-specific T cells with alanine/glycine-substituted peptides; type: cell-based, human; conditions: for T-cell proliferation, average cpm: 72 hr
From the text: Because the T-cell epitopes were most frequently localized to Aβ16-30, we further mapped this epitope for each of its constituent amino acids by using alanine-substituted peptides in the T-cell proliferation assay (the naturally occurring alanines at positions 21 and 30 were changed to glycines). […] Substitution of lysine-16, alanine-21, serine-26 or aspargine-27 increased T-cell proliferation by more than 2-fold (Table 4).
In this experiment, T cells specific to Aβ16-30 were stimulated in the presence of alanine/glycine substituted peptides and autologous PBMCs. T-cell proliferation was measured by [^3H]-thymidine incorporation 72 hr after stimulation. Numbers represent average cpm of each antigen concentration tested (average cpm in the absence of antigen was 911).
(§1) T-cell lines were then supplemented with 10 μg/ml IL-2 after 48 hours and every 2 days thereafter until they were completely resting. T-cell proliferation was measured 72 hours after stimulation following a 12 hr incubation with [^3H]-thymidine. Supernatants were collected 48 hr after T-cell stimulation, and antigen-induced cytokine production was measured by sandwich ELISA. Recommended pairs of antibodies (coating and detecting) for IL-10 (R&D, Minneapolis, Minn.), INF-γ. Endogen, Woburn, Mass.), IL-13 (PharMingen, (San Diego, Calif.), and TGF-β (Promega, Madison, Wis.) were used according to the manufacturer's instructions. Surface and intracellular staining was performed on Aβ-reactive T-cells after stimulation. All antibodies were purchased from BD Biosciences (San Diego, Calif.) and staining was performed according to the manufacturer's instructions.

[2] = test system: Aβ1-42-reactive T-cell lines; test: Epitope mapping / proliferation of Aβ1-42-reactive T-cell lines; type: cell-based, human; conditions: for Distribution of Aβ T-cell epitopes: Number of T-cell lines / Distribution of Aβ T-cell epitopes: percent: lines from 24 subjects, fine mapping with 15 amino acid overlapping peptides
Experimental: Epitope specificity of these 3 T-cell lines using 5 overlapping peptides within Aβ15-42 was further investigated.
as §1

[3] = test system: popliteal draining lymph nodes (PLN) T cells; test: Lymph node T-cell proliferation after immunization of mice with Aβ in CFA; type: cell-based, mouse; conditions: for T-cell proliferation across the peptide series Aβ7-21 to Aβ10-24: SJL mice immunized with rodent Aβ1-42; for T-cell proliferation with overlapping peptides: SJL-derived lymphocyte cultures, immunized with human Aβ1-42

Row | Substance | T-cell proliferation, average cpm ([1]; Peptide 0.1 μg/ml) | T-cell proliferation, average cpm ([1]; Peptide 1 μg/ml) | T-cell proliferation, average cpm ([1]; Peptide 10 μg/ml) | also measured
1 | Gly 29 Ala: Aβ16-30 peptide with glycine-29 substituted by alanine (KLVFFAEDVGSNKAA; Amyloid-beta protein 42; UniProt P05067 687-701, looked up, variant G29A) | 622 cpm | 3014 cpm | 14513 cpm | effect of substitution on T-cell proliferation ([1]; only at 0.1 or 1 μg/ml): inhibitory effects
2 | Aβ19-33: nested Aβ peptide, residues 19-33 (FFAEDVGSNKGAIIG) | – | – | – | location of T-cell epitopes ([2]; T-cell line DRB1 1501/1101, 5 overlapping peptides within Aβ15-42): mainly located
3 | Ala 30 Gly: Aβ16-30 peptide with alanine 30 changed to glycine (KLVFFAEDVGSNKGG; Amyloid-beta protein 42; UniProt P05067 687-701, looked up, variant A30G) | 2123 cpm | 12027 cpm | 15395 cpm | –
4 | Lys 16 Ala: Aβ16-30 peptide with lysine-16 substituted by alanine (ALVFFAEDVGSNKGA; Amyloid-beta protein 42; UniProt P05067 687-701, looked up, variant K16A) | 5357 cpm | 22304 cpm | 36456 cpm | –
5 | Gly 25 Ala: Aβ16-30 peptide with Gly 25 substituted by alanine (KLVFFAEDVASNKGA; Amyloid-beta protein 42; UniProt P05067 687-701, looked up, variant G25A) | 2426 cpm | 13763 cpm | 24979 cpm | –
6 | Aβ8-22: Aβ peptide, residues 8-22 (SGYEVHHQKLVFFAE; Amyloid-beta protein 42; UniProt P05067 679-693, looked up, fragment) | – | – | – | T-cell proliferation across the peptide series Aβ7-21 to Aβ10-24 [3]: gradual increase
7 | Val 18 Ala: Aβ16-30 peptide with Val 18 substituted by alanine (KLAFFAEDVGSNKGA; Amyloid-beta protein 42; UniProt P05067 687-701, looked up, variant V18A) | 7216 cpm | 17427 cpm | 26814 cpm | –
8 | Leu 17 Ala: Aβ16-30 peptide with Leu 17 substituted by alanine (KAVFFAEDVGSNKGA; Amyloid-beta protein 42; UniProt P05067 687-701, looked up, variant L17A) | 2242 cpm | 11805 cpm | 24480 cpm | –
9 | Asn 27 Ala: Aβ16-30 peptide with asparagine-27 substituted by alanine (KLVFFAEDVGSAKGA; Amyloid-beta protein 42; UniProt P05067 687-701, looked up, variant N27A) | 23636 cpm | 36588 cpm | 34983 cpm | –
10 | Aβ13-27: nested Aβ peptide, residues 13-27 (HHQKLVFFAEDVGSN; Amyloid-beta protein 42; UniProt P05067 684-698, looked up, fragment) | – | – | – | T-cell proliferation with overlapping peptides [3]: induced T-cell proliferation
11 | Phe 19 Ala: Aβ16-30 peptide with phenylalanine-19 substituted by alanine (KLVAFAEDVGSNKGA; Amyloid-beta protein 42; UniProt P05067 687-701, looked up, variant F19A) | 986 cpm | 4354 cpm | 17943 cpm | effect of substitution on T-cell proliferation ([1]; only at 0.1 or 1 μg/ml): inhibitory effects
12 | Ala 21 Gly: Aβ16-30 peptide with alanine 21 changed to glycine (KLVFFGEDVGSNKGA; Amyloid-beta protein 42; UniProt P05067 687-701, looked up, variant A21G) | 12901 cpm | 29634 cpm | 36448 cpm | –
13 | Lys 28 Ala: Aβ16-30 peptide with Lys 28 substituted by alanine (KLVFFAEDVGSNAGA; Amyloid-beta protein 42; UniProt P05067 687-701, looked up, variant K28A) | 5050 cpm | 15475 cpm | 29156 cpm | –
14 | Glu 22 Ala: Aβ16-30 peptide with glutamic acid-22 substituted by alanine (KLVFFAADVGSNKGA; Amyloid-beta protein 42; UniProt P05067 687-701, looked up, variant E22A) | 1145 cpm | 840 cpm | 517 cpm | effect of substitution on T-cell proliferation ([1]; at all 3 concentrations used): blocked or significantly decreased
15 | Val 24 Ala: Aβ16-30 peptide with valine-24 substituted by alanine (KLVFFAEDAGSNKGA; Amyloid-beta protein 42; UniProt P05067 687-701, looked up, variant V24A) | 944 cpm | 6160 cpm | 19869 cpm | effect of substitution on T-cell proliferation ([1]; only at 0.1 or 1 μg/ml): inhibitory effects
16 | Aβ7-21: nested Aβ peptide, residues 7-21 (DSGYEVHHQKLVFFA; Amyloid-beta protein 42; UniProt P05067 678-692, looked up, fragment) | – | – | – | Distribution of Aβ T-cell epitopes: Number of T-cell lines [2]: 1; Distribution of Aβ T-cell epitopes: percent [2]: 4%; T-cell proliferation ([3]; NOD mice immunized with Aβ1-42): slight T-cell proliferation; T-cell proliferation across the peptide series Aβ7-21 to Aβ10-24 [3]: gradual increase; T-cell proliferation with overlapping peptides [3]: induced T-cell proliferation
17 | Phe 20 Ala: Aβ16-30 peptide with phenylalanine-20 substituted by alanine (KLVFAAEDVGSNKGA; Amyloid-beta protein 42; UniProt P05067 687-701, looked up, variant F20A) | 1188 cpm | 2239 cpm | 4216 cpm | effect of substitution on T-cell proliferation ([1]; at all 3 concentrations used): blocked or significantly decreased
18 | Asp 23 Ala: Aβ16-30 peptide with aspartic acid-23 substituted by alanine (KLVFFAEAVGSNKGA; Amyloid-beta protein 42; UniProt P05067 687-701, looked up, variant D23A) | 1145 cpm | 1685 cpm | 612 cpm | effect of substitution on T-cell proliferation ([1]; at all 3 concentrations used): blocked or significantly decreased
19 | Aβ28-42: nested Aβ peptide, residues 28-42 (KGAIIGLMVGGVVIA; Amyloid-beta protein 42; UniProt P05067 699-713, looked up, fragment) | – | – | – | Distribution of Aβ T-cell epitopes: Number of T-cell lines [2]: 5; Distribution of Aβ T-cell epitopes: percent [2]: 20%
20 | Ser 26 Ala: Aβ16-30 peptide with serine-26 substituted by alanine (KLVFFAEDVGANKGA; Amyloid-beta protein 42; UniProt P05067 687-701, looked up, variant S26A) | 18808 cpm | 36287 cpm | 38335 cpm | –
